Reference: patent US4239744A, “Radioreceptor assay for benzodiazepines in plasma and other biological specimens” (United States of America, priority 1978, dated 1980)

Tested on: binding sites for [^3 H] diazepam (benzodiazepine receptor), rat cerebral cortex synaptosomal membranes
Assay: Radioreceptor assay: inhibition of [3H]diazepam binding to rat synaptosomal membranes by drugs dissolved in plasma
Conditions: for plasma concentration that could be reliably measured by inhibition of [3H]diazepam binding: benzodiazepine dissolved in plasma, assayed in triplicate, from standard curve in figure; for potency rank among the benzodiazepines tested in inhibiting [3H]diazepam binding: four benzodiazepines: clonazepam, N-demethyldiazepam, flurazepam
Procedure: Blood samples to be assayed are drawn into heparinized tubes and the plasma then separated therefrom by centrifugation at […]. Two-hundred μl of plasma is then pipetted into microtubes, e.g., Eppendorf Microtubes (Brinkman Instruments, Westbury, N.Y.) and diluted 1:10 with water. Samples are mixed by inversion and the plasma precipitated with 50 μl of perchloric acid. The samples are then vortexed briefly and centrifuged in a microcentrifuge, e.g., an Eppendorf Microfuge (Brinkman Instruments, Westbury, N.Y.), for three minutes. Twenty-five μl of the clear supernatant is withdrawn and added to 375 μl of distilled water in 16×125 mm glass tubes. Assays are thereafter performed at 0°-4° C. as follows:
The incubation is terminated after 15 min with a 5 ml wash of ice-cold […] Tris buffer (2-amino-2-hydroxymethyl-1,3-propanediol) at pH 7.4, and immediately filtered through Whatman GF/B filters in a filtering device, e.g., a Millepore filtering bank (Model 1225, Millipore Corp., Bedford, Mass.) The filters are immediately washed with an additional 5 ml of ice-cold buffer. The filters are airdried and suspended in a scintillation fluor, e.g., in 10 ml "Aquasol" (New England Nuclear, Boston, Mass.) and the radiation measured in a liquid scintillation counter, e.g., a Beckman LS-355 liquid scintillation counter.
Standard curves were constructed by adding known amounts of benzodiazepine to plasma, diluting the plasma (1:5 or 1:10) with water, and proceeding in an identical manner to unknown samples. […] The percent inhibition of specific binding by plasma samples is defined as: [formula] […] The slope and intercept of these lines were determined by least mean squares regression analysis and the benzodiazepine concentrations in unknown plasma samples computed from these values.
The synaptosomal membranes suspension described above is prepared as follows:
(a) homogenize rat brains in 20 volumes of ice-cold 0.32 M sucrose (using a Potter-Elvehjern homogenizer);
(b) centrifuge the resulting suspension obtained in step (a) at 1000×g for 10 minutes;
(c) centrifuge the supernatent obtained in step (b) at 20,000×g for 20 minutes; and
(d) resuspend the pellet obtained in step (c) in 40 volumes of Tris buffer to a final protein concentration of approximately 1 mg/ml.

Structure (SMILES)	plasma concentration that could be reliably measured by inhibition of [3H]diazepam binding	potency rank among the benzodiazepines tested in inhibiting [3H]diazepam binding	potency in inhibiting [3H]diazepam binding relative to the parent compound diazepam (from standard curves in figure)
O=C1CN=C(c2ccccc2Cl)c2cc([N+](=O)[O-])ccc2N1 [Clonazepam, clonazepam]	10 ng/mL	most potent	
CCN(CC)CCN1C(=O)CN=C(c2ccccc2F)c2cc(Cl)ccc21 [flurazepam]	approximately 100 ng/ml	least potent	
O=C1CN=C(c2ccccc2)c2cc(Cl)ccc2N1 [N-demethyldiazepam]			about 85%
